Experimental data: PMC9233891 (Bioorganic Chemistry, 2022)

Legend:
[1] = system: S protein / ACE2 interaction; settings: previous study; cited from earlier work
ancestral SARS-CoV-2 = assay: microbe, parasite or virus in culture; type: cell-based; settings: Severe acute respiratory syndrome coronavirus 2, Vero, 24 h, read-out: IC50, inhibition of SARS-CoV-2 infection

SMILES | inhibition of the interaction between the S protein and ACE2 [1] | IC50 (ancestral SARS-CoV-2) [µM]
C[C@@H]1O[C@@H](O[C@H]2[C@H](OC(=O)[C@]34CCC(C)(C)C[C@H]3C3=CC[C@@H]5[C@@]6(C)C[C@H](O)[C@H](O[C@@H]7O[C@H](CO)[C@@H](O)[C@H](O)[C@H]7O)C(CO)(CO)[C@@H]6CC[C@@]5(C)[C@]3(C)C[C@H]4O)OC[C@H](O)[C@@H]2O)[C@H](O)[C@H](O)[C@H]1O[C@@H]1OC[C@@H](O)[C@H](O[C@@H]2OC[C@](O)(CO)[C@H]2O)[C@H]1O [Platycodin D, platycodin D] | does not inhibit the interaction between the S protein and ACE2 | –
CCN(CC)CCCC(C)Nc1ccnc2cc(Cl)ccc12 (stereo not drawn) [chloroquine] | – | 5.56
CCC(CC)COC(=O)[C@H](C)N[P@](=O)(OC[C@H]1O[C@@](C#N)(c2ccc3c(N)ncnn23)[C@H](O)[C@@H]1O)Oc1ccccc1 [remdesivir] | – | 4.67
